Where “and” joins values, the source holds several entries; their conditions need not be identical. Equal entries are not always repeated.
What was measured:
[1] = target: T1, D(1A) dopamine receptor (Homo sapiens, UniProt P21728); assay: D1R Functional Assay; settings: pH 7.5
[2] = target: T1, D(1A) dopamine receptor; assay: Competitive Binding Assays
[3] = target: D(3) dopamine receptor (Homo sapiens, UniProt P35462); assay: Competitive Binding Assays
[4] = target: D(2) dopamine receptor (Homo sapiens, UniProt P14416); assay: Competitive Binding Assays
Sequence of D(2) dopamine receptor (P14416 whole entry): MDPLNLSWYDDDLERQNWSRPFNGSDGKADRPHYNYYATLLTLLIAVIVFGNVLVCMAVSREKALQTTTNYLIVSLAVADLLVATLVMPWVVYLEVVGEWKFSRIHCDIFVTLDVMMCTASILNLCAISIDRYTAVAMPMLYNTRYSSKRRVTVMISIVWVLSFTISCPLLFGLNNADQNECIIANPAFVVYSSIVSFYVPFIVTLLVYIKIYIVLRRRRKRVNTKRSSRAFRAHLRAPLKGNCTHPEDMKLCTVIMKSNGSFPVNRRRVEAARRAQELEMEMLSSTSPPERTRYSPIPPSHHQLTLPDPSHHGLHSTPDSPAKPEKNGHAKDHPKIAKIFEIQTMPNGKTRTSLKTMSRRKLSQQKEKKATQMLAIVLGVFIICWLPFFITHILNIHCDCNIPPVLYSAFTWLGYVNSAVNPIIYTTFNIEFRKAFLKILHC

T1 sequence (P21728 whole entry): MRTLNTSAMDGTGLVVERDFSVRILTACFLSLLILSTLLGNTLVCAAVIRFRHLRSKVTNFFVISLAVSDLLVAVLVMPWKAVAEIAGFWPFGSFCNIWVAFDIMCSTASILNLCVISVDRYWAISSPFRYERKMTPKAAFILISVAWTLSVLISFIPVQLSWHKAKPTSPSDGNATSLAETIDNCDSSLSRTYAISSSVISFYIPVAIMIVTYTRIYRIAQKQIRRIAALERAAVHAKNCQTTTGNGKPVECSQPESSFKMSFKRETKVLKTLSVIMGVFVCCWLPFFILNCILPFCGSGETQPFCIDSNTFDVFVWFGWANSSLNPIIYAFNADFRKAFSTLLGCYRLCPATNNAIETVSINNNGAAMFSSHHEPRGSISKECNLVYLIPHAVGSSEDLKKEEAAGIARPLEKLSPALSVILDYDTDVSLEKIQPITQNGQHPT
Sequence of D(3) dopamine receptor (P35462 as listed by the source): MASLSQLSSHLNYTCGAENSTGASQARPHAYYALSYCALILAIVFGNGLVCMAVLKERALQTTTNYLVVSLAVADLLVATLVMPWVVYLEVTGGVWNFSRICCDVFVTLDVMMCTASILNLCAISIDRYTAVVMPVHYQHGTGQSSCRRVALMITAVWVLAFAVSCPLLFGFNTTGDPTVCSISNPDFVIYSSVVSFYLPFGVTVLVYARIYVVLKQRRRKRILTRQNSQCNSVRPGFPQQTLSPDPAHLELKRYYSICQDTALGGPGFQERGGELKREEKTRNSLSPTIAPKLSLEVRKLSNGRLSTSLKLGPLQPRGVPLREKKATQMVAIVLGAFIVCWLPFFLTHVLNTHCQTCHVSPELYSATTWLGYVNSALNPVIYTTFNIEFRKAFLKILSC

Structure (SMILES) | IC50 [1] | Ki [2] | Ki [3] | Ki [4]
COc1cc2c(cc1O)C1Cc3ccc(OC)c(OC)c3CCN1CC2 (stereo not drawn) [3,10,11-trimethoxy-5,6,8,9,14,14a-hexahydrobenzo[4,5]azepino[2,1-a]isoquinolin-2-ol (15d)] | 33.5 µM | 0.0303 µM | 0.284 µM | 0.084 µM
COc1cc2c(cc1OC(C)=O)C1Cc3ccc(OC)c(OC)c3CCN1CC2 (stereo not drawn) [3,10,11-trimethoxy-5,6,8,9,14,14a-hexahydrobenzo[4,5]azepino[2,1-a]isoquinolin-2-ylacetate (19)] |  | 0.474 µM | 0.0737 µM | 0.052 µM
Oc1cc2c(cc1O)C1Cc3ccc(O)c(O)c3CCN1CC2 (stereo not drawn) [5,6,8,9,14,14a-hexahydrobenzo[4,5]azepino[2,1-a]isoquinoline-2,3,10,11-tetraol (18)] | 115 µM | 0.0337 µM | 0.471 µM | 0.0722 µM
COc1cc2c(cc1O)C1Cc3cc(OC)c(OC)cc3CCN1CC2 (stereo not drawn) [3,11,12-trimethoxy-5,6,8,9,14,14a-hexahydrobenzo[4,5]azepino[2,1-a]isoquinolin-2-ol (15b)] |  | 0.0691 µM | 0.0392 µM | 0.00696 µM
COc1cc2c(cc1OC)CC1c3cc(OC)c(OC)cc3CCN1CC2 (stereo not drawn) [2,3,11,12-tetramethoxy-5,6,8,9,14,14a-hexahydrobenzo[4,5]azepino[2,1-a]isoquinoline (15a)] |  | 0.0339 µM | 0.0133 µM | 0.0265 µM
COc1ccc2c(c1OC)CCN1CCc3cc(O)c(O)cc3C1C2 (stereo not drawn) [Hexahydrobenzo[4,5]azepino[2,1-a]isoquinoline, 17] |  | 0.22 µM | 0.0612 µM | 0.0392 µM
COc1ccc2c(c1OC)CCN1CCc3cc4c(cc3C1C2)OCO4 (stereo not drawn) [Hexahydrobenzo[4,5]azepino[2,1-a]isoquinoline, 16] |  | 0.0603 µM | 0.0273 µM | 0.00426 µM
COc1cc2c(cc1OC)C1Cc3ccc(OC)c(OC)c3CCN1CC2 (stereo not drawn) [2,3,10,11-tetramethoxy-5,6,8,9,14,14a-hexahydrobenzo[4,5]azepino[2,1-a]isoquinoline (15c)] |  | 0.0573 µM | 0.022 µM | 0.0298 µM
COc1cc2c(cc1O)C1Cc3ccc(OC)c(O)c3CCN1CC2 (stereo not drawn) [3,11-dimethoxy-5,6,8,9,14,14a-hexahydrobenzo[4,5]azepino[2,1-a]isoquinoline-2,10-diol ((+)-15e)] | 0.14 µM |  |  | 0.0366 µM and 0.0344 µM and 0.0583 µM

Reference: BindingDB's records for doi:10.1111/cbdd.12796 (Fudan University, 2016)
